According to PMC3281693 (The Journal of Biological Chemistry, 2011):

Assays:
Rpm1-NBARC = molecular target: T1, Rpm1-NBARC (Arabidopsis thaliana, UniProt Q39214); conditions: 100 μM ATP, 10 nM protein; MgCl2, pH 7.5
T1 sequence (Q39214 177-519): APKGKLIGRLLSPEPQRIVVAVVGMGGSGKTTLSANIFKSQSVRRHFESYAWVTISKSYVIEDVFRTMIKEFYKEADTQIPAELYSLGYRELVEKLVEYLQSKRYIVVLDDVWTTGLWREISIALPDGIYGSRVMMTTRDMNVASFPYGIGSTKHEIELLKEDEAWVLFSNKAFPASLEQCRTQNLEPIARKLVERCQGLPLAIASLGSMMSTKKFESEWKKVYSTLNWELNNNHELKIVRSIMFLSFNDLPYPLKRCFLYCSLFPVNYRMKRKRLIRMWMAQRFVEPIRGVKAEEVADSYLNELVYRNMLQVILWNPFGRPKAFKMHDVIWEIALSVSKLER

cross-linking = molecular target: the molecule itself; experiment: cross-linking

Molecule: Nc1ncnc2c1ncn2[C@@H]1O[C@H](COP(=O)(O)OP(=O)(O)OP(=O)(O)O)[C@@H](O)[C@H]1O [ATP]
- nucleotide phosphatase assay, HPLC (Rpm1-NBARC): Rpm1-NBARC catalyzed the production of Ado from ATP and ADP

B1: E. coli catabolite-activated protein (CAP) (natural protein, UniProt P0ACJ8 1-210, looked up)
chain: MVLGKPQTDPTLEWFLSHCHIHKYPSKSTLIHQGEKAETLYYIVKGSVAVLIKDEEGKEMILSYLNQGDFIGELGLFEEGQERSAWVRAKTACEVAEISYKKFRQLIQVNPDILMRLSAQMARRLQVTSEKVGNLAFLDVTGRIAQTLLNLAKQPDAMTHPDGMQIKITRQEIGQIVGCSRETVGRILKMLEDQNLISAHGKTIVVYGTR
- stoichiometry N (cross-linking): 2
